For the assay, the system named is PC-3 cells. The experiment in a line: Flow cytometric analysis of hypoxic cell induction. In kind it is cell-based, human. The following applies: for Mean fluorescence (FITC antibody against pimonidazole adducts): 10 μM pimonidazole, 2 h. A general note: Flow cytometry measures light scatter and fluorescence of single cells or particles in a stream.

Take `O=[N+]([O-])c1nccn1CC(O)CN1CCCCC1` (stereo not drawn) [pimonidazole]: for the setting “PC-3 cells, flow cytometry”, the “Increase in pimonidazole binding, hypoxic compared to normoxic” value is given as “fivefold increase”. The “Mean fluorescence (FITC antibody against pimonidazole adducts)” value reads like this: (hypoxic PC-3 cells (94.9% N2, 0.1% O2, 5% CO2)) 286; (normoxic PC-3 cells (95% air, 5% CO2)) 56.8.

The values above are taken from PMC3310374 (Bioconjugate Chemistry, 2012).
